Earlier results as cited in patent publication EP4174079B1 (UNIWERSYTET JAGIELLONSKI, priority 2021, dated 2023).

Settings: compared with cisplatin

In the case of [Cl][Pt][Cl].c1cn[nH]c1.c1cn[nH]c1 [Cis-PtCl2(pzH)2], the antitumour activity is listed as “significantly lower than cisplatin”.
